According to patent publication US20150233930A1, “METHODS AND COMPOSITIONS EMPLOYING SECRETED PROTEINS THAT REFLECT AUTOPHAGY DYNAMICS WITHIN TUMOR CELLS” (The Wistar Institute of Anatomy and Biology, priority 2014, published 2015):

What was measured:
tumor cells = conditions: preclinical models of melanoma; cited from earlier work
1205Lu cells = test: LC3 immunoblotting of lysates from cells treated with rapamycin or hydroxychloroquine; type: cell-based, human; conditions: 1205Lu cells compared to WM793 cells
Experimental: Melanoma cell lines […] and 1205Lu (as well as other cell lines identified in the appropriate figures) were maintained in RPMI 1640 (Invitrogen) supplemented with 10% fetal bovine serum (Sigma), 50 μg/mL gentamicin, and 25 mmol/L HEPES in the presence of 5% CO2 at 37° C. The 3D spheroid cultures were prepared as previously described^1 and cell death was evaluated using the Live/Dead Assay (Invitrogen). Electron microscopy was performed as previously described^1. Immunoblotting was performed on whole cell lysates as previously described. A commercially available polyclonal antibody against actin (I-19) was used (Santa Cruz). A polyclonal antibody against LC3 that was produced by QCB Biologicals was used. Band densities from Western Blots were quantified using Adobe Photoshop CS4 Extended.
The genetically paired melanoma cell lines, WM793 and 1205Lu, were used for initial secretome comparisons due to the inherent genetic heterogeneity across unrelated melanoma cell lines. The 1205Lu cell line is a subclone derived from the lung metastasis of WM793 in athymic mice, thus minimizing protein expression changes caused by genetic differences^14. To determine autophagic capacity in these paired cell lines, electron microscopy of WM793 and 1205Lu grown in complete medium was used to quantify AVs (FIG. 1A). […]

CCN(CCO)CCCC(C)Nc1ccnc2cc(Cl)ccc12 (centres unmarked) [hydroxychloroquine]
effect on cytotoxic effects of alkylating agents (tumor cells): augment the cytotoxic effects of alkylating agents
LC3II/LC3I ratio (1205Lu cells): increases
